From US20070178152A1, “Carboxyalkylcellulose esters for administration of poorly soluble pharmaceutically active agents” (priority 2005, published 2007)
Values joined by “and” are separate entries in the source; they are usually repeats but may differ in a detail not shown here. Identical values can stand only once.

What was measured:
Assay type in all cases: physicochemical
[1] = Determination of % crystallinity by X-ray
Protocol: Determination of % Crystallinity by X-ray.
All samples were run on a Scintag PAD V diffractometer using Cu K-alpha X-ray.
For each polymer or drug used in this study a neat sample was obtained. A known weight of each species was mixed with a know weight of corundum, Al2O3, diffraction standard. Each mixture was pelletized with a hydraulic press and the XRD pattern of the pellet was measured from 5 to 45 degree scattering angle. A diffraction response factor, R, was calculated for each species according to: R=wc/ws*ls/lc where wc id the weight fraction of corundum, ws is the weight fraction of the species of interest, lc is the net intensity of the major diffraction line of corrundum and is the net intensity of the major diffraction line of the drug or in the case of the polymers, the net intensity of the maximum of the amorphous scattering curve.
Samples were pelletized with a hydraulic press and the XRD pattern of the pellet was measured from 5 to 45 degree scattering angle. The net intensity of the maximum of the amorphous scatter from the polymer, lp, and the net intensity of the major diffraction line of the drug, ld, were determined from the resulting scattering curve. The wt % crystalline drug was calculated from: % crystalline drug=(ld/Rd)/(ld/Rd+lp/Rp)×100 where Rd is the response factor for the drug and Rp is the response factor for the polymer.

[2] = Dissolution of carbamazepine and carbamazepine solid dispersions in SIFsp, pH 6.8; conditions: for % Drug Released / Total Drug Released: SIFsp pH 6.8, gelatin capsule; for Average % Released: carbamazepine
Protocol: (§1) All dissolution studies were performed on a Varian VK7025 Dissolution Apparatus equipped with a Varian VK8000 Fraction Collector
(§2) HPLC Methods for Evaluating Dissolution Aliquots:
(§3) Determination of Weight % Phenytoin, Carbamazepine, Glyburide, or Griseofulvin.
(§4) Mobile Phase: 55% acetonitrile/45% ammonium acetate buffer (2.6 g NH4OAc/L H2O with pH adjusted to pH˜5.25 with glacial acetic acid)
(§5) Column: Agilent Eclipse XDB-C8, 4.6 mm×150 mm×5 μm
(§6) Detection: UV 254 nm (UV 214 nm can also be used for phenytoin or carbamazepine, UV 291 nm can also be used for griseofulvin); typically five signals were selected from UV 214 nm, 222 nm, 254 nm, 287 nm, 291 nm, and/or 325 nm were collected for each sample.
(§7) Simulated Intestinal Fluid, without pancreatin, pH 6.8 (SIFsp, pH 6.8)—Added monobasic potassium phosphate (KH2PO4, 34 g) to a 4000-mL beaker. Added deionized/polished water (2000 mL) and mixed using a magnetic stir bar until the KH2PO4 is completely dissolved. Added 0.2 N sodium hydroxide (NaOH, 590 mL) and stirred. The pH was adjusted to pH 6.8±0.1 using 0.2 N NaOH. The sample was diluted with deionized/polished water to a final volume of 5000 mL.
(§8) The SIFsp media was heated to ˜45° C. in four 2000-mL Kimax bottles in an oven. The sample was degassed according to USP protocol by filtering through a 0.45 μm membrane filter (Pall, Supor-450, 0.45 μm, 90 mm, part # 60200, Lot # 43214) and stirring under vacuum for 5 minutes.
(§9) Dissolution Conditions #1.
(§10) Dissolution Conditions #2.
These Examples describe the dissolution of carbamazepine and carbamazepine solid dispersions by evaluating the samples described in Examples 91-99. SlFsp, pH 6.8 media preparation was described in the Materials and Methods section.
Samples were transferred into gelatin capsules (Capsugel, size OCS, Lot #624282) using a manual single capsule filler. The weight of each capsule and the amount of sample added are found in Table 17 (Capsule Description).

[3] = Dissolution of griseofulvin and griseofulvin solid dispersions (with or without surfactant) in SIFsp, pH 6.8; conditions: for % Drug Released / Total Drug Released: SIFsp pH 6.8, gelatin capsule, single vessel; for Average % Released: SIFsp, pH 6.8, average of runs
Protocol: as §1, §2, §3, §4, §5, §6, §7, §8, §9, §10
These Examples describe the dissolution of griseofulvin and griseofulvin solid dispersions by evaluating the samples described in Examples 125-134. SlFsp, pH 6.8 media preparation was described in the Materials and Methods section.
Samples were transferred into gelatin capsules (Capsugel, size 0CS, Lot # 624282) using a manual single capsule filler. The weight of each capsule and the amount of sample added are found in Table 21 and 22 (Capsule Description).
These Examples describe the impact of surfactant additives on the dissolution profiles of griseofulvin/CMCAB solid dispersions. Preparations of the griseofulvin/CMCAB, griseofulvin/CMCAB/Tween 80, and griseofulvin/CMCAB/SDS solid dispersions evaluated in this example are described in Examples 135-138. SIFsp, pH 6.8 media preparation was described in the Materials and Methods section.
Samples were transferred into gelatin capsules (Capsugel, size 00CS, Lot # 637785) using a manual single capsule filler. The weight of each capsule and the amount of sample added are found in Table 23 (Capsule Description).

For `COc1ccc(Cl)cc1C(=O)NCCc1ccc(S(=O)(=O)NC(=O)NC2CCCCC2)cc1` [Example 113, Glyburide], the “wt % Crystal (X-ray)” value ([1]; glyburide/CMCAB solid dispersions and physical blends (Table 10)) was 100 wt %.

With `O=C1NC(=O)C(c2ccccc2)(c2ccccc2)N1` [Example 78, Phenytoin] the “wt % Crystal (X-ray)” value ([1]; phenytoin/polymer solid dispersions and physical blends (Table 6)) was 100 wt %.

For `NC(=O)N1c2ccccc2C=Cc2ccccc21` [Example 95, Carbamazepine], the “wt % Crystal (X-ray)” value ([1]; carbamazepine/CMCAB solid dispersions and physical blends (Table 8)) was 100 wt %, the “% Drug Released” value ([2]; 20 min) was 33.9384% and 38.8298% and the “Total Drug Released” value ([2]; 20 min) was 9.4293 mg and 10.5423 mg. For the same compound, the “% Drug Released” value ([2]; 30 min) was 44.1249% and 55.2412%, the “Total Drug Released” value ([2]; 30 min) was 12.2594 mg and 14.9980 mg and the “% Drug Released” value ([2]; 60 min) was 59.6056% and 68.7527%. For the same compound, the “Total Drug Released” value ([2]; 60 min) was 16.5605 mg and 18.6664 mg, the “% Drug Released” value ([2]; 120 min) was 68.4090% and 79.5856% and the “Total Drug Released” value ([2]; 120 min) was 19.0064 mg and 21.6075 mg. The “% Drug Released” value ([2]; 180 min) was 67.5738% and 72.0943%, the “Total Drug Released” value ([2]; 180 min) was 18.7744 mg and 19.5736 mg and the “% Drug Released” value ([2]; 240 min) was 67.7652% and 72.6520%. The “Total Drug Released” value ([2]; 240 min) was 18.8275 mg and 19.7250 mg, the “% Drug Released” value ([2]; 300 min) was 67.6548% and 72.9162% and the “Total Drug Released” value ([2]; 300 min) was 18.7969 mg and 19.7968 mg. The “% Drug Released” value ([2]; 360 min) was 72.4305% and 71.9068%, the “Total Drug Released” value ([2]; 360 min) was 20.1237 mg and 19.5227 mg and the “% Drug Released” value ([2]; 450 min) was 67.4606% and 70.7122%. For the same compound, the “Total Drug Released” value ([2]; 450 min) was 18.7429 mg and 19.1984 mg, the “Average % Released” value ([2]; SIFsp pH 6.8, 10 min) was 6.7739% and the “Average % Released” value ([2]; SIFsp pH 6.8, 20 min) was 36.3841%. For the same compound, the “Average % Released” value ([2]; SIFsp pH 6.8, 30 min) was 49.6830%, the “Average % Released” value ([2]; SIFsp pH 6.8, 60 min) was 64.1792% and the “Average % Released” value ([2]; SIFsp pH 6.8, 120 min) was 73.9973%. The “Average % Released” value ([2]; SIFsp pH 6.8, 180 min) was 69.8341%, the “Average % Released” value ([2]; SIFsp pH 6.8, 240 min) was 70.2086% and the “Average % Released” value ([2]; SIFsp pH 6.8, 300 min) was 70.2855%. For the same compound, the “Average % Released” value ([2]; SIFsp pH 6.8, 360 min) was 72.1686% and the “Average % Released” value ([2]; SIFsp pH 6.8, 450 min) was 69.0864%.

For `COC1=CC(=O)C[C@@H](C)[C@]12Oc1c(Cl)c(OC)cc(OC)c1C2=O` [griseofulvin, Griseofulvin], the “% Drug Released” value ([3]; 15 min) was 39.8059% and 45.3135% and 36.6133% and 35.8167%, the “Total Drug Released” value ([3]; 15 min) was 13.1651 mg and 12.7375 mg and 12.9809 mg and 12.9579 mg and the “% Drug Released” value ([3]; 30 min) was 37.0470% and 36.5664% and 39.6132% and 46.9736%. For the same compound, the “Total Drug Released” value ([3]; 30 min) was 13.1347 mg and 13.2291 mg and 13.1014 mg and 13.0986 mg, the “% Drug Released” value ([3]; 45 min) was 36.6587% and 36.6412% and 39.5262% and 47.1475% and the “Total Drug Released” value ([3]; 45 min) was 12.9970 mg and 13.2561 mg and 13.0726 mg and 13.1471 mg. For the same compound, the “% Drug Released” value ([3]; 60 min) was 37.2839% and 36.7251% and 40.3033% and 46.5134%, the “Total Drug Released” value ([3]; 60 min) was 13.2187 mg and 13.2865 mg and 13.3296 mg and 12.9703 mg and the “% Drug Released” value ([3]; 90 min) was 36.3266% and 35.9752% and 39.8005% and 51.1520%. For the same compound, the “Total Drug Released” value ([3]; 90 min) was 12.8793 mg and 13.0152 mg and 13.1633 mg and 14.2638 mg, the “% Drug Released” value ([3]; 120 min) was 38.9498% and 36.7450% and 40.2775% and 47.3403% and the “Total Drug Released” value ([3]; 120 min) was 13.8093 mg and 13.2937 mg and 13.3211 mg and 13.2009 mg. The “% Drug Released” value ([3]; 150 min) was 36.6774% and 35.8335% and 39.6316% and 47.7972%, the “Total Drug Released” value ([3]; 150 min) was 13.0036 mg and 12.9639 mg and 13.1075 mg and 13.3283 mg and the “% Drug Released” value ([3]; 180 min) was 36.6068% and 35.6474% and 39.0996% and 46.7861%. For the same compound, the “Total Drug Released” value ([3]; 180 min) was 12.9786 mg and 12.8966 mg and 12.9315 mg and 13.0464 mg, the “% Drug Released” value ([3]; 210 min) was 37.1385% and 35.7882% and 39.5796% and 46.7393% and the “Total Drug Released” value ([3]; 210 min) was 13.1671 mg and 12.9476 mg and 13.0903 mg and 13.0333 mg. For the same compound, the “% Drug Released” value ([3]; 240 min) was 36.7973% and 36.6212% and 39.5780% and 46.2187%, the “Total Drug Released” value ([3]; 240 min) was 13.0461 mg and 13.2489 mg and 13.0897 mg and 12.8881 mg and the griseofulvin release profile ([3]; SIFsp pH 6.8, FIGS. 7-14, in words) was “rapid release”. The “Average % Released” value ([3]; 15 min) was 39.3874%, the “Average % Released” value ([3]; 30 min) was 40.0500% and the “Average % Released” value ([3]; 45 min) was 39.9934%. For the same compound, the “Average % Released” value ([3]; 60 min) was 40.2064%, the “Average % Released” value ([3]; 90 min) was 40.8136% and the “Average % Released” value ([3]; 120 min) was 40.8282%. For the same compound, the “Average % Released” value ([3]; 150 min) was 39.9849%, the “Average % Released” value ([3]; 180 min) was 39.5350% and the “Average % Released” value ([3]; 210 min) was 39.8114%. For the same compound, the “Average % Released” value ([3]; 240 min) was 39.8038%.
